Reference: US8652769B2, “Methods for separating frozen-thawed spermatozoa into X-chromosome bearing and Y-chromosome bearing populations” (XY, LLC, priority 2000, dated 2014)
Marks after values point to notes of the source that are not given here.

System: oocytes inseminated with separated stained spermatozoa from frozen-thawed sperm
Experiment: In-vitro fertilization: cleavage and development of oocytes inseminated with stained, flow-sorted frozen-thawed bull sperm
Format: cell-based, bovine
Experimental: As an example of an application of embodiments of the invention involving frozen bull sperm in IVF applications, sperm samples from two bulls were stained either at a concentration of 224 μM or 2,240 of Hoechst 33342 and the stained spermatozoa were then bulk sorted on a flow cytometer at 1000 sperm/sec into 2% egg yolk citrate. Spermatozoa were inseminated at 1×10^6/mL and embryos were cultured in the mSOF system described by Tervit H. R. et al., Successful Culture In-Vitro of Sheep and Cattle Ova, J. Reprod. Fertil., 30:493-497([…]), hereby incorporated by reference. Three replicates were carried out for bull 1 and one replicate for bull 2 (Table 1). With conventional procedures, blastocyst production with separated spermatozoa can be 70-90% of controls with spermatozoa that have not been separated.
As can be understood, it can take much longer to stain frozen-thawed sperm so that they can be resolved during separation at the lower stain concentration than at 10×stain concentration. The differences observed in cleavage rates between the two stain concentrations most likely can be attributed to the extended incubation time at the lower stain level.

[1] = Bull 1, 3 ejaculates, Hoechst 33342 conc. 224 μM, staining time required 190 min, 368 oocytes
[2] = Bull 1, 3 ejaculates, Hoechst 33342 conc. 2240 μM, staining time required 60 min, 373 oocytes
[3] = Bull 2, 1 ejaculate, Hoechst 33342 conc. 224 μM, staining time required 190 min, 86 oocytes
[4] = Bull 2, 1 ejaculate, Hoechst 33342 conc. 2240 μM, staining time required 60 min, 81 oocytes

Compound: CCOc1ccc(-c2nc3ccc(-c4nc5ccc(N6CCN(C)CC6)cc5[nH]4)cc3[nH]2)cc1 [Hoechst 33342]
- % blastocysts/oocyte [1]: 17%
- % cleave [1]: 44^a %
- % blastocysts/oocyte [2]: 23%
- % cleave [2]: 60^b %
- % blastocysts/oocyte [3]: 0^a %
- % cleave [3]: 23^a %
- % blastocysts/oocyte [4]: 16^b %
- % cleave [4]: 42^b %
- effect of increased stain concentration on cleavage or embryonic development (stain concentration up to at least 2240 μM): does not appear to have a depressive effect
